One compound from EP2799533A1, “Protease and inhibitor containing water-soluble films” (Novozymes A/S, priority 2013, dated 2014) can be followed below.

Common to all, as to assay type: biochemical
For one assay, the system named is Stainzyme. The assay can be described thus: Residual enzymatic activity of amylase in water-soluble film after film production. The method, then:
(§1) We prepared two different enzyme containing water-soluble films, as outlined in Table 1 below. The films were produced under normal film production conditions. Later, the films were analyzed to estimate the enzymatic activity remaining after the production process, i.e., the percentage of residual enzymatic activity in the final film product, as compared to the amount of enzyme added in the production process.
The amylase used was Stainzyme (Novozymes A/S, Denmark), which was added to obtain a final concentration of 0.1 % wt active enzyme protein in both of the films.
(§2) The protease inhibitor used was 4-formyl-phenyl-boronic acid (4-FPBA), which was added to obtain a final concentration of 0.5% wt in one of the water-soluble films.
(§3) Since the humidity of the samples was not controlled, some of the absolute values from the analysis are above 100%. However, all film samples were treated identically and analyzed at the same time, and therefore the relative improvement by using the protease inhibitor can be calculated. Table 1. The data are based on an average of three analyses of each film.

For another assay, the system named is Mannaway. The assay can be described thus: Residual enzymatic activity of mannanase in water-soluble film after film production. To be noted: Mannanase (Mannaway, 0.03% wt) in film with Savinase protease; 0.5% wt 4-FPBA; vs. amount of enzyme added; average of three analyses; film without 4-FPBA: 1%. How it is done:
as §1
The mannanase used was Mannaway (Novozymes A/S, Denmark), which was added to obtain a final concentration of 0.03% wt active enzyme protein in both of the films.
as §2, §3

In a further assay the target is T1, Savinase (Lederbergia lenta, UniProt P29600).
T1 construct: purchased Novozymes A/S, Denmark
T1 sequence (P29600 1-269): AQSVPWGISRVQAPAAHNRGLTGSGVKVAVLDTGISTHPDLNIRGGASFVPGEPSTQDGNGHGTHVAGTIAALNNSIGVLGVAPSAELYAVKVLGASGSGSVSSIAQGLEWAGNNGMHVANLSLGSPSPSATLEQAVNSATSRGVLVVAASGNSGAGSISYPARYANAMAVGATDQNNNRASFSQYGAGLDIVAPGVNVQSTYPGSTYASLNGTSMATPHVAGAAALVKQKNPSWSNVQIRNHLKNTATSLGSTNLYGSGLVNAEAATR
Kind of assay: Residual enzymatic activity of protease in water-soluble film after film production. The method, then: as §1
The protease used for preparing the films was Savinase (Novozymes A/S, Denmark), which was added to obtain a final concentration of 1.1 % wt active enzyme protein in both of the water-soluble films.
as §2, §3

Regarding `O=Cc1ccc(B(O)O)cc1` [4-FPBA, 4-formyl-phenyl-boronic acid], the “Residual activity in film made with 4-FPBA” value in the assay on Stainzyme (Amylase (Stainzyme, 0.1 % wt) in film with Savinase protease, 0.5% wt 4-FPBA, vs. amount of enzyme added, average of three analyses, humidity not controlled, values above 100%, film without 4-FPBA: 106%) was 114%; in the assay with Mannaway it was 63%; at Savinase (Protease (Savinase, 1.1 % wt) in film also holding amylase and mannanase, 0.5% wt 4-FPBA, vs. amount of enzyme added, average of three analyses, film without 4-FPBA: 87%), 93%. The “Relative improvement by using inhibitor” value in the assay on Stainzyme (Amylase, film with 0.5% wt 4-FPBA vs. film without 4-FPBA) came out at 8%; at Savinase (Protease, film with 0.5% wt 4-FPBA vs. film without 4-FPBA) it was 7%.
